Consider 1 molecule from US20240035973A1, “METHODS AND COMPOSITIONS OF STABLE THALLIUM FLUX ASSAYS FOR DETECTING MODULATORS OF ION CHANNELS” (ION Biosciences, priority 2022, published 2024).

Read-outs that look alike come from different tables or passages of the source.

Test [1] has as its target T1, GIRK (Homo sapiens, UniProt P48051+P48549).
T1 sequence (P48549 1-501): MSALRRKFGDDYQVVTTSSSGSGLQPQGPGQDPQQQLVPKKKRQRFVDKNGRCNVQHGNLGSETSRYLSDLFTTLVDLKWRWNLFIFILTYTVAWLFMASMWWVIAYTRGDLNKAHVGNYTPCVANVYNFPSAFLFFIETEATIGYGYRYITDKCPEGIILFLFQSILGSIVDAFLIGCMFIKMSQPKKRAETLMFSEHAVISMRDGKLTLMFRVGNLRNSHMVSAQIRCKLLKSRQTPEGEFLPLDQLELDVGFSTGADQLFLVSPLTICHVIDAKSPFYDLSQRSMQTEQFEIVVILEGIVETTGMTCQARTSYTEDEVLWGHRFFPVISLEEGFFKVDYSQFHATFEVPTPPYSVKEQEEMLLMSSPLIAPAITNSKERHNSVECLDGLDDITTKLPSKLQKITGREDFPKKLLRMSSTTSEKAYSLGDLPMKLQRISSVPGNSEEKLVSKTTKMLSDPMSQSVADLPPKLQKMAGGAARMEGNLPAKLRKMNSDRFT
T1 sequence (P48051 1-423): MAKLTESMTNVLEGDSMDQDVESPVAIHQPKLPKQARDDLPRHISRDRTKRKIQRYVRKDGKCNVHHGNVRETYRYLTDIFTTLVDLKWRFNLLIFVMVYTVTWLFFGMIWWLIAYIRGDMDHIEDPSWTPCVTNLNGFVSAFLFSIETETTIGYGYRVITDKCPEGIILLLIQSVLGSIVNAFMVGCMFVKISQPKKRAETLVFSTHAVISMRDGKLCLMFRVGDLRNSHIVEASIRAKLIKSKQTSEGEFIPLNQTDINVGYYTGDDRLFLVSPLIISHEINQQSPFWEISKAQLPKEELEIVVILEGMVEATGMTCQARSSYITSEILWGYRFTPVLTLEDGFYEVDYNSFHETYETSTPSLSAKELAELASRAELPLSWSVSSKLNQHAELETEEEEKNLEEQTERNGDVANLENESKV
Briefly: traditional thallium flux assay (influx), dose response. Type of test: cell-based. The settings on record: traditional thallium flux method, CHO GIRK cells. The procedure:
FIG. 5: (Left) Overlay of normalized dose response curves acquired using new method. Data was acquired using different analytical methods or instruments, and all three result in similar profiles and reported EC50 values.
In a comparative test of the efflux method disclosed herein, EC50 values were determined using VU551 as the effector. Three different instruments were used to monitor the change in fluorescence: 1- kinetic imaging plate reader (Hamamatsu FDSS), 2 - fluorescent microscope; 3- fluorescent plate reader. FIG. 5 depicts an overlay of normalized dose response curves acquired using the efflux method described herein. Regardless of the method of data collection, all three instruments provided similar profiles and reported similar EC50 values. In the right graph of FIG. 5, a dose response curve acquired using traditional thallium flux assay methods is shown. […] The use of a plate reader to determine the EC50 in the efflux method produced the closest result to the traditional method.

Test [2] deals with T2, GIRK1/2 (Homo sapiens, UniProt P48051+P48549).
T2 construct: expressed in transfected cells; host or cells: CHO (Chinese hamster ovary) cells overexpressing GIRK1 and GIRK2
T2 sequence (P48549 1-501): T1 sequence (P48549 1-501)
T2 sequence (P48051 1-423): T1 sequence (P48051 1-423)
The test can be described thus: thallium efflux assay by flow cytometry in CHO GIRK1/2 cells. Type of test: cell-based. The procedure: CHO GIRK cells were treated with HEPES-Buffered Hanks Balanced Salt Solution (HHBSS, Control) or GIRK activator, VU0466551 (VU551). Data was acquired 50 minutes after addition of 1 μM VU551 using a BD Accuri C6 Flow Cytometer. […] FIG. 18 depicts an overlay of histograms of CHO GIRK1/2 cell fluorescence in treated and control cells.
FIG. 19 depicts the kinetic profile of CHO GIRK1/2 median cell fluorescence. Sample data was acquired before and at different time points after the addition of 3 μM GIRK activator, VU0466551 (VU551) or HHBSS (control). A slow increase in fluorescence is observed in the untreated group.

Test [3] addresses T1, GIRK. Also noted: expressed in transfected cells; host or cells: CHO-K1 cells overexpressing GIRK channels. The settings on record: potassium indicator; plate reader or microscopy; read-out: EC50, literature reported value (calculated EC50s in line with it); cited from earlier work.

`Cc1cc(NC(=O)Nc2ccc(F)c(F)c2)n(Cc2ccccc2)n1` [VU551]: the EC50 – broadly, the concentration giving half of the maximal effect – was 77 nM in test [1] and roughly 75 nM in test [3]. Also, the “Mean cell fluorescence of the treated group” value in test [2] (1 μM, 50 minutes after addition, BD Accuri C6 Flow Cytometer, control 4.5M RFUs) stood at 2.5 M. In addition, the “change in median cell fluorescence (kinetic profile)” value in test [2] (3 μM, before and at different time points after addition) is listed as “rapid loss in fluorescence”.
